Laboratory results: ChEMBL document CHEMBL1127926, “Preparation and antitumor activity of [N-alkyl-Ala2]RA-VII, antitumor cyclic hexapeptide” (Bioorg Med Chem Lett, 1994)
≈ marks a conversion by molar mass, not a printed value.

Experiments:
KB = test: Cytotoxicity in human epidermoid carcinoma of the nasopharynx(KB) cells; type: functional, cell-based
P388 = test: Cytotoxicity in murine lymphocytic leukemia (P388) cells; type: functional, cell-based; settings: Mus musculus
Mus musculus [1] = test: Antitumor activity against P388 leukemia cells was determined in mice at a dose 25.0 mg/kg administered i.p. on days 1-5; type: functional; settings: route intraperitoneal
Mus musculus [2] = test: Antitumor activity against P388 leukemia cells was determined in mice at a dose 0.4 mg/kg administered i.p. on days 1-5; type: functional; settings: route intraperitoneal
Mus musculus [3] = test: Antitumor activity against P388 leukemia cells was determined in mice at a dose 6.25 mg/kg administered i.p. on days 1-5; type: functional; settings: route intraperitoneal
Mus musculus [4] = test: Antitumor activity against P388 leukemia cells was determined in mice at a dose 1.6 mg/kg administered i.p. on days 1-5; type: functional; settings: route intraperitoneal
Mus musculus [5] = test: Antitumor activity against P388 leukemia cells was determined in mice at a dose 12.5 mg/kg administered i.p. on days 1-5; type: functional; settings: route intraperitoneal
Mus musculus [6] = test: Antitumor activity against P388 leukemia cells was determined in mice at a dose 0.8 mg/kg administered i.p. on days 1-5; type: functional; settings: route intraperitoneal
Mus musculus [7] = test: Antitumor activity against P388 leukemia cells was determined in mice at a dose 3.13 mg/kg administered i.p. on days 1-5; type: functional; settings: route intraperitoneal
Mus musculus [8] = test: Antitumor activity against P388 leukemia cells was determined in mice at a dose 6.25 mg/kg administered i.p. on days 1-5; Toxic; type: functional, organism-based; parameters: dose 6.25 mg/kg

With `CCCCN1C(=O)[C@@H](C)NC(=O)[C@@H]2Cc3ccc(OC)c(c3)Oc3ccc(cc3)C[C@@H](C(=O)N2C)N(C)C(=O)[C@H](C)NC(=O)[C@H](Cc2ccc(OC)cc2)N(C)C(=O)[C@@H]1C` the IC50 (KB) was 0.024 µg/mL (≈ 0.029 µM) and the IC50 (P388) was 10 ng/mL (≈ 0.0121 µM).
Compound `COc1ccc(C[C@H]2C(=O)N[C@@H](C)C(=O)N(C)[C@H]3Cc4ccc(cc4)Oc4cc(ccc4OC)C[C@@H](C(=O)N[C@H](C)C(=O)N(C/C=C/c4ccccc4)[C@@H](C)C(=O)N2C)N(C)C3=O)cc1` has an IC50 (KB) of 0.03 µg/mL (≈ 0.0338 µM) and an IC50 (P388) of 9.4 ng/mL (≈ 0.0106 µM).
`COc1ccc(C[C@H]2C(=O)N[C@@H](C)C(=O)N(C)[C@H]3Cc4ccc(cc4)Oc4cc(ccc4OC)C[C@@H](C(=O)N[C@H](C)C(=O)N(C/C=C(\C)CCC=C(C)C)[C@@H](C)C(=O)N2C)N(C)C3=O)cc1` was tested, and the T/C (Mus musculus [1]) was 164%, the IC50 (KB) was 0.062 µg/mL (≈ 0.0683 µM) and the T/C (Mus musculus [2]) was 119%. The IC50 (P388) was 44 ng/mL (≈ 0.0485 µM), the T/C (Mus musculus [3]) was 148% and the T/C (Mus musculus [4]) was 131%.
`CCCN1C(=O)[C@@H](C)NC(=O)[C@@H]2Cc3ccc(OC)c(c3)Oc3ccc(cc3)C[C@@H](C(=O)N2C)N(C)C(=O)[C@H](C)NC(=O)[C@H](Cc2ccc(OC)cc2)N(C)C(=O)[C@@H]1C` was tested, and the IC50 (KB) was 0.0097 µg/mL (≈ 0.0119 µM) and the IC50 (P388) was 3.2 ng/mL (≈ 0.00394 µM).
`CC/C=C/CN1C(=O)[C@@H](C)NC(=O)[C@@H]2Cc3ccc(OC)c(c3)Oc3ccc(cc3)C[C@@H](C(=O)N2C)N(C)C(=O)[C@H](C)NC(=O)[C@H](Cc2ccc(OC)cc2)N(C)C(=O)[C@@H]1C` gave an IC50 (KB) of 0.022 µg/mL (≈ 0.0262 µM), a T/C (Mus musculus [2]) of 113% and an IC50 (P388) of 10 ng/mL (≈ 0.0119 µM). The T/C (Mus musculus [3]) was 155% and the T/C (Mus musculus [4]) was 125%.
Work on `C/C=C/CN1C(=O)[C@@H](C)NC(=O)[C@@H]2Cc3ccc(OC)c(c3)Oc3ccc(cc3)C[C@@H](C(=O)N2C)N(C)C(=O)[C@H](C)NC(=O)[C@H](Cc2ccc(OC)cc2)N(C)C(=O)[C@@H]1C` yielded an IC50 (KB) of 0.018 µg/mL (≈ 0.0218 µM), a T/C (Mus musculus [2]) of 112% and an IC50 (P388) of 7.6 ng/mL (≈ 0.00921 µM). It also gave a T/C (Mus musculus [3]) of 155% and a T/C (Mus musculus [4]) of 127%.
For `COc1ccc(C[C@H]2C(=O)N[C@@H](C)C(=O)N(C)[C@H]3Cc4ccc(cc4)Oc4cc(ccc4OC)C[C@@H](C(=O)N[C@H](C)C(=O)N(C)[C@@H](C)C(=O)N2C)N(C)C3=O)cc1`, the IC50 (KB) was 0.0077 µg/mL (≈ 0.00981 µM) and the IC50 (P388) was 1.2 ng/mL (≈ 0.00153 µM).
Compound `C=C(C)CN1C(=O)[C@@H](C)NC(=O)[C@@H]2Cc3ccc(OC)c(c3)Oc3ccc(cc3)C[C@@H](C(=O)N2C)N(C)C(=O)[C@H](C)NC(=O)[C@H](Cc2ccc(OC)cc2)N(C)C(=O)[C@@H]1C` has an IC50 (KB) of 0.027 µg/mL (≈ 0.0327 µM) and an IC50 (P388) of 9 ng/mL (≈ 0.0109 µM).
In the case of `CCN1C(=O)[C@@H](C)NC(=O)[C@@H]2Cc3ccc(OC)c(c3)Oc3ccc(cc3)C[C@@H](C(=O)N2C)N(C)C(=O)[C@H](C)NC(=O)[C@H](Cc2ccc(OC)cc2)N(C)C(=O)[C@@H]1C`, the IC50 (KB) is reported as 0.035 µg/mL (≈ 0.0438 µM) and the IC50 (P388) is reported as 35 ng/mL (≈ 0.0438 µM).
In the case of `C=CCN1C(=O)[C@@H](C)NC(=O)[C@@H]2Cc3ccc(OC)c(c3)Oc3ccc(cc3)C[C@@H](C(=O)N2C)N(C)C(=O)[C@H](C)NC(=O)[C@H](Cc2ccc(OC)cc2)N(C)C(=O)[C@@H]1C`, the IC50 (KB) is reported as 0.013 µg/mL (≈ 0.016 µM) and the IC50 (P388) is reported as 15 ng/mL (≈ 0.0185 µM).
For `CCCCCN1C(=O)[C@@H](C)NC(=O)[C@@H]2Cc3ccc(OC)c(c3)Oc3ccc(cc3)C[C@@H](C(=O)N2C)N(C)C(=O)[C@H](C)NC(=O)[C@H](Cc2ccc(OC)cc2)N(C)C(=O)[C@@H]1C`, the IC50 (KB) was 0.063 µg/mL (≈ 0.0749 µM) and the IC50 (P388) was 18 ng/mL (≈ 0.0214 µM).
Compound `COc1ccc(C[C@H]2C(=O)N[C@@H](C)C(=O)N(C)[C@H]3Cc4ccc(cc4)Oc4cc(ccc4OC)C[C@@H](C(=O)N[C@H](C)C(=O)N(CC=C(C)C)[C@@H](C)C(=O)N2C)N(C)C3=O)cc1` has an IC50 (KB) of 0.0064 µg/mL (≈ 0.00763 µM), a T/C (Mus musculus [5]) of 174% and a T/C (Mus musculus [2]) of 123%. It also gave an IC50 (P388) of 5.8 ng/mL (≈ 0.00691 µM), a T/C (Mus musculus [3]) of 160% and a T/C (Mus musculus [4]) of 132%.
`COc1ccc(C[C@H]2C(=O)N[C@@H](C)C(=O)N(C)[C@H]3Cc4ccc(cc4)Oc4cc(ccc4OC)C[C@@H](C(=O)N[C@H](C)C(=O)N[C@@H](C)C(=O)N2C)N(C)C3=O)cc1` was tested, and the T/C (Mus musculus [6]) was 144%, the IC50 (KB) was 0.0023 µg/mL (≈ 0.00298 µM) and the T/C (Mus musculus [2]) was 144%. The T/C (Mus musculus [7]) was 163%, the IC50 (P388) was 1.3 ng/mL (≈ 0.00169 µM) and the Activity (Mus musculus [8]) was “Toxic”. It also gave a T/C (Mus musculus [4]) of 152%.
